Data set [1] in a line: In vitro cytotoxicity assay (resazurin) on Raw 264.7 macrophage cells. Type of data set: cell-based, murine. The settings on record: mouse. How it is done:
RAW 264.7 cells were obtained from RIKEN BioResource Centre Cell Bank (Tsukuba, Japan) and cultured in Dulbecco’s modified Eagle medium (DMEM) containing 1% penicillin–streptomycin and 10% FBS under 5% CO2 and humidified atmosphere at 37 °C and sub-cultured every 72 h.
(§1) A stock solution was prepared at 100 mg/mL for each extract and fraction and at 50 mg/mL for isolated compound in 100% DMSO (Sigma–Aldrich, Munich, Germany). Master plates were then prepared by mixing 2 μL of each stock solution with 198 μL of fresh incomplete RPMI 1 640 culture medium to yield a concentration of 1 mg/mL for extract and fraction and of 0.5 mg/mL (1% DMSO) followed by a 5-fold serial dilution. Extracts and fractions were tested at concentrations ranging from 0.16 to 100 μg/mL, and isolated compounds at concentrations ranging from 0.08 to 50 μg/mL.
The murine macrophages, Raw 264.7 cells were grown in a T-25 cm^2 flask containing the complete Dulbecco’s modified Eagle’s medium (Sigma–Aldrich, Munich, Germany) supplemented with 10% FBS (Sigma–Aldrich, Munich, Germany), 1% non-essential amino acids, and 1% (v/v) penicillin–streptomycin (Sigma–Aldrich, Munich, Germany) and incubated at 37° in a humidified atmosphere containing 5% CO2. For the experiments, 80–90% confluent cell culture was trypsinized, counted using a Neubauer haemacytometer, and seeded into a 96-well cell culture treated flat-bottomed plate (SARSTEDT, Inc. Newton, NC 28658, USA) at a cell density of 10^4 cells/well. Plates were incubated overnight to allow cell adhesion. Cells were then treated with serially diluted concentrations of crude extract, fractions, and isolated compounds for 48 h. Podophyllotoxin (Sigma–Aldrich, Munich, Germany) was used as positive control with the highest concentration of 10 μM. Afterwards, 10 μL of resazurin solution (0.15 mg/mL prepared in PBS) was added to each well, and the plates were additionally incubated for 4 h. Of important note, resazurin is a nonfluorescent, nontoxic, and cell-permeable blue dye which is used to quantify cell viability following its conversion into the highly fluorescent pink dye resorufin in response to changes in the reducing environment within the cytosol of the cell. The level of fluorescence that positively correlates with cell viability was measured using a Magellan Infinite M200 plate reader (Tecan, Germany) at an excitation wavelength of 530 nm and an emission wavelength of 590 nm. The growth proliferation percentage of cells was calculated with respect to the negative control. The concentration–response curves were plotted using inhibitory percentages versus the logarithm of the drug concentration to determine the concentration of drug that reduces cell viability by 50% (CC50) using GraphPad Prism 8.0 software. Selectivity indices (SI) [SI = CC50/IC50] were determined for each inhibitor based on their antiparasitic activity (IC50) and cell cytotoxicity (CC50 on Raw cells). Samples with SI greater than 10 were classified as poorly toxic toward Raw cells.
A general note: Resazurin is reduced to fluorescent resorufin, in cell work by metabolically active cells.

Data set [2] concerns P. falciparum chloroquine-sensitive (Pf3D7). Put plainly: Antiplasmodial SYBR green I based fluorescence assay, chloroquine-sensitive strain. The format is cell-based. The note with it: Plasmodium falciparum; chloroquine-sensitive strain 3D7, 72 h; read-out: Pf3D7 IC50 ± SD.
From the text: (§2) The cryopreserved chloroquine-sensitive (Pf3D7-(MRA-102)), the multi-resistant (PfDd2) of Plasmodium falciparum, and the promastigote form of Leishmania donovani strains were obtained from BEI Resources (https://www.beiresources.org/ (accessed on 16 February 2019)) and are routinely cultured at the Antimicrobial and Biocontrol Agents Unit, University of Yaoundé I.
(§3) Plasmodium falciparum strains were maintained in 60 mm sterile petri dishes containing complete RPMI 1640 medium [RPMI 1640 (Sigma Aldrich) supplemented with 0.2% sodium bicarbonate (Sigma Aldrich), 0.5% Albumax II (Gibco), 1% hypoxanthine 100X (Gibco, Billings, MT, USA), 25 mM HEPES, and 0.04% gentamicin (Sigma Aldrich)] with fresh O^+ erythrocytes of healthy human volunteers suspended at 4% haematocrit (v/v) and incubated at 37 °C in a 5% CO2 humidified atmosphere. The medium was replaced daily with fresh complete medium to propagate the culture. Ten percent (10%) Giemsa-stained thin blood smears were examined microscopically under immersion oil to monitor cell-cycle transition and parasitaemia.
as §1
(§4) The use of mixed-stage cultures can enable the test molecules to interact with all the three stages (ring, trophozoite, and schizont) found during a 48-h life cycle of P. falciparum in culture. Moreover, starting the experiment with a synchronized ring stage culture provides the advantage of monitoring the growth inhibitory effect of test samples without a rise-up in parasitemia during the ring–trophozoite–schizont transitions. For this particular reason, parasites were synchronized at the ring stage by serial treatment with 5 % sorbitol for two days prior to each experiment with respect to Lambros and Vanderberg, 1979 [44] protocol.
(§5) Drug sensitivity assay was carried out in 96-well microtitration plates using the SYBR green I based fluorescence assay (Smilkstein et al., 2004). […] The fact that human red blood host cells are anucleate allows the use of SYBR green for the proper monitoring of the growth of the malarial parasite.
(§6) The 96 wells flat-bottom assay plates with sorbitol-synchronized ring stage parasites (haematocrit: 1%, parasitaemia: 2%, 90 μL) were incubated in the presence of 10 µL of pre-diluted extracts, fractions, isolated compounds, and reference drugs [Chloroquine and Artemisinin (Sigma–Aldrich, Munich, Germany)] at different triplicate concentrations (100 µg/mL–0.16 µg/mL for extract/fractions and 50 µg/mL–0.08 µg/mL for compounds). After an incubation period of 72 h at 37 °C, 100 μL of the SYBR Green I solution prepared in a lysis buffer (0.2 µL of 10,000× SYBR Green I per mL of lysis buffer) consisting of Tris (20 mM; pH 7.5), EDTA (5 mM), saponin (0.008%; m/v), and Triton X-100 (0.08%; v/v) was added to each well, mixed twice gently with a multi-channel pipette, and incubated in the dark at 37 °C for 1 h. Fluorescence was measured using the microplate reader Infinite M200 (Tecan) at an excitation and emission wavelength of 485 and 538 nm, respectively. […] The data analysis was performed with GraphPad Prism 8.0 software, fitting by nonlinear regression, and concentration–response curves were generated to determine the median inhibitory concentration (IC50) for each sample.

Data set [3] relates to P. falciparum chloroquine-resistant (PfDd2). Put plainly: Antiplasmodial SYBR green I based fluorescence assay, chloroquine-resistant strain. Type of data set: cell-based. The settings on record: Plasmodium falciparum; chloroquine-resistant strain Dd2, 72 h; read-out: PfDd2 IC50 ± SD.
From the text: as §2, §3, §1, §4, §5, §6
The resistance index (RI) was determined as the ratio of the IC50 of the samples on the multi-resistant strain Dd2 and the IC50 on the chloroquine-sensitive strain 3D7 as reported by Douanla et al..

Data set [4] relates to L. donovani promastigotes 1S (MHOM/SD/62/1S). Put plainly: Antileishmanial resazurin fluorimetric assay on promastigotes. The settings on record: Leishmania donovani; promastigotes, resazurin assay; read-out: L. donovani Promastigote IC50 ± SD. The format is cell-based, Leishmania donovani. The procedure: as §2
Leishmania donovani promastiogtes were cultured in Medium 199 (Sigma, Darmstadt, Germany) supplemented with 10% Heat-Inactivated fetal Bovine Serum (HIFBS) (Sigma, Darmstadt, Germany) and 100 IU/mL penicillin/streptomycin. The culture was maintained in 75 cm^2 cell culture flask at 28 °C and sub-cultured every 72 h.
as §1
The antileishmanial activity of crude extracts, derived fractions, and isolated compounds against cultured L. donovani promastigotes was evaluated using the resazurin fluorimetric assay as described by Siqueira-Neto et al. (2010). Briefly, promastigotes from a logarithmic phase culture (4 × 10^5 cells/mL; 90 μL) were seeded in 96-well microplates and treated with 10 μL of inhibitors at different triplicate concentrations (100 µg/mL–0.16 µg/mL for extract/fractions and 50 µg/mL–0.08 µg/mL for compounds). Plates were incubated for 28 h at 28 °C, followed by the addition of […] resazurin (0.15 mg/mL in DPBS; Sigma, Darmstadt, Germany). The negative and positive controls were, respectively, 0.1% DMSO and amphotericin B (Sigma, Darmstadt, Germany) (10–0.016 μg/mL) treated wells. After an additional incubation for 44 h, plates were then read on a Magelan Infinite M200 fluorescence plate reader (Tecan, Männedorf, Switzerland) at excitation and emission wavelengths of 530 and 590 nm, respectively. For each sample, growth inhibition percentages were calculated with Microsoft Excel Software; then, from the nonlinear regression fit, concentration–response curves were generated to deduce the median inhibitory concentration (IC50) using the GraphPad Prism 8.0 software.

Data set [5] concerns Leishmania donovani strain MHOM/IN/1983/AG83. Further details: method as in PMID 24949478. The note with it: scopoletin from leaves of Canarium patentinervium; cited from earlier work.
The next data set concerns the target cholinesterase. Further details: method as in PMID 24949478. The note with it: cited from earlier work.
Another data set has as its system Leishmania. More on the design: method as in PMID 30663371. The settings on record: another study; cited from earlier work.

The structures appear in SMILES notation. In brackets after ≈: the same amount, converted by molar mass.

One may read the CC50 as the concentration giving 50% cytotoxicity. In general, IC50 refers to the point on the concentration scale where inhibition reaches its midpoint. Take `COc1cc2ccc(=O)oc2cc1O` [Scopoletin (3), 7-hydroxy-6-methoxycoumarin]: the CC50 at 48 h in data set [1] was above 500 µg/mL. Also, the IC50 in data set [2] was above 50 µg/mL; in data set [3], above 50 µg/mL; in data set [4], 6.4 ± 0.8 µg/mL (≈ 33.3 µM). In data set [5], the “IC50 against Leishmania donovani strain MHOM/IN/1983/AG83” value is on record as 163.3 µg/mL (≈ 850 µM). For the same compound, at cholinesterase, the “anticholinesterase activity IC50” value is reported as 51 µg/mL. For the same compound, the “antileishmanial activity IC50” value in the data set on Leishmania was 6.804 µg/mL.

Values taken from article PMC10059057, “Antileishmanial and Antiplasmodial Activities of Secondary Metabolites from the Root of Antrocaryon klaineanum Pierre (Anacardiaceae)” (Molecules, 2023).
